Target: T1, JAK3 (recombinant human kinase domain; h-jak3(810-1124)) (Homo sapiens, UniProt P52333)
T1 construct: h-jak3(810- 1124)-sf9-c; made in house; host or cells: Sf9 insect cells
Assay: Determination of IC50 of Janus Kinase (JAK) inhibition: JAK3, radioactive end-point assay with 33P-ATP
Assay type: biochemical
Settings: JAK3 kinase domain; ATP 1.5 uM, peptide 50 uM, 20 minutes, room temperature, 10% DMSO; read-out: Ic50 h-jak3(810-1124)-sf9-c:no additive

T1 sequence (P52333 810-1124): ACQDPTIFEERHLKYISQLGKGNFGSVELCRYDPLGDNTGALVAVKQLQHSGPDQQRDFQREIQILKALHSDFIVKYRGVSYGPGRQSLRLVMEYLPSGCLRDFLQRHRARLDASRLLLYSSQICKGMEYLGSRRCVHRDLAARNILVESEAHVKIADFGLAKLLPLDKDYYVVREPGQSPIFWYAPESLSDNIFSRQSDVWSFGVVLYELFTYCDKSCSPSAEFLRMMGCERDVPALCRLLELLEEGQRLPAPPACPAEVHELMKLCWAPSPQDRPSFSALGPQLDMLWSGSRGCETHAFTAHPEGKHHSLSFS

Compound | IC50 [nM]
C[C@H](NC(=O)c1c[nH]c2ncc(C3CCCCC3)nc12)C(C)(C)O [Example I-11, 2-Cyclohexyl-5H-pyrrolo[2,3-b]pyrazine-7-carboxylic acid ((S)-2-hydroxy-1,2-dimethyl-propyl)-amide] | 152
N#CCCNC(=O)c1c[nH]c2ncc(C3CC3)nc12 [Example I-13, 2-Cyclopropyl-5H-pyrrolo[2,3-b]pyrazine-7-carboxylic acid (2-cyano-ethyl)-amide] | 436
CC(C)(CO)CNC(=O)c1c[nH]c2ncc(N3CCC(C)(C)C3)nc12 [Example I-14, 2-(3,3-Dimethyl-pyrrolidin-1-yl)-5H-pyrrolo[2,3-b]pyrazine-7-carboxylic acid (3-hydroxy-2,2-dimethyl-propyl)-amide] | 409
CCC[C@@](C)(O)[C@@H](C)NC(=O)c1c[nH]c2ncc(C3CC3)nc12 [Example I-84, 2-Cyclopropyl-5H-pyrrolo[2,3-b]pyrazine-7-carboxylic acid ((1R,2R)-2-hydroxy-1,2-dimethyl-pentyl)-amide] | 65.1
CC(NC(=O)c1c[nH]c2ncc(Oc3ccc(F)cc3)nc12)C1CC1 (centres unmarked) [Example I-113, 2-(4-Fluoro-phenoxy)-5H-pyrrolo[2,3-b]pyrazine-7-carboxylic acid (1-cyclopropyl-ethyl)-amide] | 35.7
COC[C@@H](NC(=O)c1c[nH]c2ncc(C3CC3)nc12)C(C)(C)C [Example I-65, 2-Cyclopropyl-5H-pyrrolo[2,3-b]pyrazine-7-carboxylic acid ((S)-1-methoxymethyl-2,2-dimethyl-propyl)-amide] | 262
O=C(NC(CO)CO)c1c[nH]c2ncc(C3CC3)nc12 [Example I-51, 2-Cyclopropyl-5H-pyrrolo[2,3-b]pyrazine-7-carboxylic acid (2-hydroxy-1-hydroxymethyl-ethyl)-amide] | 414
COC[C@H](NC(=O)c1c[nH]c2ncc(C3CC3)nc12)C(C)(C)C [Example I-64, 2-Cyclopropyl-5H-pyrrolo[2,3-b]pyrazine-7-carboxylic acid ((R)-1-methoxymethyl-2,2-dimethyl-propyl)-amide] | 35.1
CC(C)NC(=O)c1c[nH]c2ncc(Oc3ccc4c(c3)C(=O)CC4)nc12 [Example I-297, 2-(3-Oxo-indan-5-yloxy)-5H-pyrrolo[2,3-b]pyrazine-7-carboxylic acid isopropylamide] | 573
CC(NC(=O)c1c[nH]c2ncc(C3CC3)nc12)C(C)(C)CO (centres unmarked) [Example I-71, 2-Cyclopropyl-5H-pyrrolo[2,3-b]pyrazine-7-carboxylic acid (3-hydroxy-1,2,2-trimethyl-propyl)-amide] | 3.8
CCNC(=O)c1c[nH]c2ncc(Oc3ccc4c(c3)CCCC4)nc12 [Example I-260, 2-(5,6,7,8-Tetrahydro-naphthalen-2-yloxy)-5H-pyrrolo[2,3-b]pyrazine-7-carboxylic acid ethylamide] | 1530
CC(C)(O)C(C)(C)NC(=O)c1c[nH]c2ncc(C3CC3)nc12 [Example I-79, 2-Cyclopropyl-5H-pyrrolo[2,3-b]pyrazine-7-carboxylic acid (2-hydroxy-1,1,2-trimethyl-propyl)-amide] | 40.7
CC(NC(=O)c1c[nH]c2ncc(Oc3ccc(F)cc3F)nc12)C1CC1 (centres unmarked) [Example I-105, 2-(2,4-Difluoro-phenoxy)-5H-pyrrolo[2,3-b]pyrazine-7-carboxylic acid (1-cyclopropyl-ethyl)-amide] | 103
CC(C)(C#N)C(NC(=O)c1c[nH]c2ncc(C3CC3)nc12)C1CC1 (centres unmarked) [Example I-81, 2-Cyclopropyl-5H-pyrrolo[2,3-b]pyrazine-7-carboxylic acid (2-cyano-1-cyclopropyl-2,2-dimethyl-ethyl)-amide] | 16
C[C@@H](NC(=O)c1c[nH]c2ncc(C3CC3)nc12)C1CCCCC1 [Example I-60, 2-Cyclopropyl-5H-pyrrolo[2,3-b]pyrazine-7-carboxylic acid ((R)-1-cyclohexyl-ethyl)-amide] | 15

More lines, now with the values ahead:

IC50 [nM] | Compound
50 | C[C@@H](NC(=O)c1c[nH]c2ncc(C3CC3)nc12)c1ccccc1 [Example I-66, 2-Cyclopropyl-5H-pyrrolo[2,3-b]pyrazine-7-carboxylic acid ((R)-1-phenyl-ethyl)-amide]
0.32 | C[C@H](NC(=O)c1c[nH]c2ncc(-c3ccc(C(=O)N4CCC(C(=O)O)CC4)s3)nc12)C(C)(C)C [Example I-182, 1-{5-[7-((S)-1,2,2-Trimethyl-propylcarbamoyl)-5H-pyrrolo[2,3-b]pyrazin-2-yl]-thiophene-2-carbonyl}-piperidine-4-carboxylic acid]
2.99 | C[C@H](NC(=O)c1c[nH]c2ncc(-c3cn(-c4cc(C(F)(F)F)ccc4F)cn3)nc12)C(C)(C)C [Example I-149, 2-[1-(2-Fluoro-5-trifluoromethyl-phenyl)-1H-imidazol-4-yl]-5H-pyrrolo[2,3-b]pyrazine-7-carboxylic acid ((S)-1,2,2-trimethyl-propyl)-amide]
2990 | CCNC(=O)c1c[nH]c2ncc(Oc3cccc4ccccc34)nc12 [Example I-261, 2-(Naphthalen-1-yloxy)-5H-pyrrolo[2,3-b]pyrazine-7-carboxylic acid ethylamide]
0.53 | CC(Cc1ccc(F)cc1)NC(=O)c1ccc(-c2cnc3[nH]cc(C(=O)N[C@@H](C)C(C)(C)C)c3n2)s1 (stereo partly drawn) [Example I-159, 2-{5-[2-(4-Fluoro-phenyl)-1-methyl-ethylcarbamoyl]-thiophen-2-yl}-5H-pyrrolo[2,3-b]pyrazine-7-carboxylic acid ((S)-1,2,2-trimethyl-propyl)-amide]
0.19 | C[C@H](NC(=O)c1c[nH]c2ncc(-c3cnn(C)c3)nc12)C(C)(C)C [Example I-141, 2-(1-Methyl-1H-pyrazol-4-yl)-5H-pyrrolo[2,3-b]pyrazine-7-carboxylic acid ((S)-1,2,2-trimethyl-propyl)-amide]
7.49 | CC(C)(CO)CNC(=O)c1c[nH]c2ncc(Nc3ccccc3)nc12 [Example I-15, 2-Phenylamino-5H-pyrrolo[2,3-b]pyrazine-7-carboxylic acid (3-hydroxy-2,2-dimethyl-propyl)-amide]
229 | CC(C)NC(=O)c1c[nH]c2ncc(Oc3ccc4[nH]ccc4c3)nc12 [Example I-277, 2-(1H-Indol-5-yloxy)-5H-pyrrolo[2,3-b]pyrazine-7-carboxylic acid isopropylamide]
184 | COc1cccc(Oc2cnc3[nH]cc(C(=O)NC(C)C)c3n2)c1 [Example I-229, 2-(3-Methoxy-phenoxy)-5H-pyrrolo[2,3-b]pyrazine-7-carboxylic acid isopropylamide]
211 | C[C@H](NC(=O)c1c[nH]c2ncc(Oc3ccccc3)nc12)C(C)(C)O [Example I-128, 2-Phenoxy-5H-pyrrolo[2,3-b]pyrazine-7-carboxylic acid ((S)-2-hydroxy-1,2-dimethyl-propyl)-amide]
37 | CC(=O)N[C@@H]1CCc2cc(Oc3cnc4[nH]cc(C(=O)N[C@@H](C)C(C)(C)C)c4n3)ccc21 [Example I-291, 2-((R)-1-Acetylamino-indan-5-yloxy)-5H-pyrrolo[2,3-b]pyrazine-7-carboxylic acid ((S)-1,2,2-trimethyl-propyl)-amide]
0.58 | C[C@H](Cc1ccccc1)NC(=O)c1ccc(-c2cnc3[nH]cc(C(=O)N[C@@H](C)C(C)(C)C)c3n2)s1 [Example I-170, 2-[5-((R)-1-Methyl-2-phenyl-ethylcarbamoyl)-thiophen-2-yl]-5H-pyrrolo[2,3-b]pyrazine-7-carboxylic acid ((S)-1,2,2-trimethyl-propyl)-amide]
0.43 | C[C@H](NC(=O)c1c[nH]c2ncc(-c3ccc(C(=O)NC(C)(C)C)s3)nc12)C(C)(C)C [Example I-157, 2-(5-tert-Butylcarbamoyl-thiophen-2-yl)-5H-pyrrolo[2,3-b]pyrazine-7-carboxylic acid ((S)-1,2,2-trimethyl-propyl)-amide]
0.46 | Cc1ccccc1CNC(=O)c1ccc(-c2cnc3[nH]cc(C(=O)N[C@@H](C)C(C)(C)C)c3n2)s1 [Example I-187, 2-[5-(2-Methyl-benzylcarbamoyl)-thiophen-2-yl]-5H-pyrrolo[2,3-b]pyrazine-7-carboxylic acid ((S)-1,2,2-trimethyl-propyl)-amide]
152 | CC(C)NC(=O)c1c[nH]c2ncc(Oc3ccc4c(c3)[C@H](NC(=O)c3ccccc3)CC4)nc12 [Example I-286, 2-((R)-3-Benzoylamino-indan-5-yloxy)-5H-pyrrolo[2,3-b]pyrazine-7-carboxylic acid isopropylamide]
2960 | CC(C)NC(=O)c1c[nH]c2ncc(Oc3ccccc3C(F)(F)F)nc12 [Example I-236, 2-(2-Trifluoromethyl-phenoxy)-5H-pyrrolo[2,3-b]pyrazine-7-carboxylic acid isopropylamide]
491 | Cc1cccc(Oc2cnc3[nH]cc(C(=O)NC(C)C)c3n2)n1 [Example I-278, 2-(6-Methyl-pyridin-2-yloxy)-5H-pyrrolo[2,3-b]pyrazine-7-carboxylic acid isopropylamide]
12.4 | CCc1cccc(-n2cnc(-c3cnc4[nH]cc(C(=O)N[C@@H](C)C(C)(C)C)c4n3)c2)c1 [Example I-151, 2-[1-(3-Ethyl-phenyl)-1H-imidazol-4-yl]-5H-pyrrolo[2,3-b]pyrazine-7-carboxylic acid ((S)-1,2,2-trimethyl-propyl)-amide]
3850 | CCc1ccccc1Oc1cnc2[nH]cc(C(=O)NC(C)C)c2n1 [Example I-238, 2-(2-Ethyl-phenoxy)-5H-pyrrolo[2,3-b]pyrazine-7-carboxylic acid isopropylamide]
0.32 | CC(=O)NC1CCN(C(=O)c2ccc(-c3cnc4[nH]cc(C(=O)N[C@@H](C)C(C)(C)C)c4n3)s2)CC1 [Example I-183, 2-[5-[4-Acetylamino-piperidine-1-carbonyl)-thiophen-2-yl]-5H-pyrrolo[2,3-b]pyrazine-7-carboxylic acid ((S)-1,2,2-trimethyl-propyl)-amide]

Source: US20140155376A1, “PYRROLOPYRAZINE KINASE INHIBITORS” (Hoffmann-La Roche Inc., priority 2010, published 2014)
